From publication PMC7179958 (CPT: Pharmacometrics & Systems Pharmacology, 2020)

Experiments:
[1] = Static R value for clinical TrDDI (FDA guidance); parameters: species or system human; conditions: eltrombopag victim, pitavastatin perpetrator; versus FDA cut‐offs
[2] = cited from earlier work
human hepatocytes = test: Uptake of pitavastatin and eltrombopag in cryopreserved human hepatocytes (oil spin method), comeasurement, micro‐rate constant mechanistic model; type: in vitro ADME
Experimental: Human hepatocytes were obtained from BioIVT (Brussels, Belgium; lot number: LYB; 10 donor LiverPool (8 Caucasians, 1 African American, and 1 Hispanic) and thawed according to supplier guidelines in Leibovitz L15 medium. Hepatocytes were kept on ice prior to use and were used within 3 hours of defrosting.
Cells were separated using an oil spin method similar to the literature. ^11 , ^17 After separation, the tubes were frozen on dry ice and the bottom layer was cut off.
A dilution factor of 100 was used to scale from pmol/mL/1 × 10^5 cells to nmol/mL/1 × 10^6 cells.
Passive rate constants for movement into and out of the cell (k f.X and k bX, respectively) as well as uptake transporter‐mediated rate constants for association to the transporter (k aX) and dissociation (k dX) and translocation (k tX) from the transporter into the medium and cell, respectively. […] The sets of ODEs for all the models (models 1–4; Table 1 ) tested for structural identifiability and used for parameter estimation are included in the Supplemental Material .
Parameter estimation was conducted within Monolix 2018 R2 (Lixoft, Antony, France) for each concentration and experiment as an individual data set, where to ensure positivity, a log‐normal distribution was assumed for each parameter, with a proportional residual error model for the observations.
Hepatocyte Incubations. […] Eltrombopag was dissolved in DMSO to give 30 µmol/mL, then diluted 333-fold to 90 nmol/mL in Leibovitz L15 medium. […] Briefly, 0.5 mL microtubes (12049877, Thermo-Fisher Scientific, Gothenburg, Sweden) layered with 15 µL of 4 % cesium chloride onto which 140 µL of 8:2 silicone oil: mineral oil, with oil red O was added. Samples were taken by transferring 100 µL of hepatocyte suspension into the microtube and spun for 15 s in a Minispin centrifuge (Eppendorf, Horsholm, Denmark), during which time the hepatocytes passed through the oil into the cesium chloride bottom layer. The tubes were then frozen on dry ice and the bottom layer cut off once frozen into a 1 mL deep well plate (260252, Thermo-Fisher Scientific, Gothenburg, Sweden).
Sample Extraction. 50 µL of water suitable for UPLC (MilliQ ELGA water, Merck-Millipore, Solna, Sweden) and 150 µL of stop solution (50:50 MeOH:MeCN, containing 0.8 % formic acid and 4 pmol/mL 5,5-diethyl-1,3-diphenyl-2-iminobarbituric acid as internal standard) were added to the frozen samples of the cut-off tube bottoms. Samples were mixed on a plate shaker for 1 h and then stored at – 80 °C overnight. Prior to analysis, samples were defrosted and mixed for 30 min before centrifugation of the plates at 4000 g for 20 min at 4 °C. Samples were transferred to a conical bottomed 96 well plate for analysis (249944, Thermo-Fisher Scientific, Gothenburg, Sweden) and diluted 1:1 with MilliQ ELGA water.
Mechanistic Modeling. […] An estimate for the total amount of transporters (To) can be obtained during the mechanistic modeling process (9, 10), and therefore Tf can be replaced using the conservation law during parameter estimation:
Parameter estimation for all model were conducted within the Monolix suite 2018 R2 (Lixoft, Antony, France) where to ensure positivity, a log-normal distribution was assumed for each parameter in the candidate models, together with a proportional residual error model for the observations.

[3] = system: UDP‐glucuronosyltransferase (UGT)1A3 and 2B7 and cytochrome P450 (CYP)2C9; conditions: inhibition by eltrombopag of UGT1A3, 2B7 and CYP2C9 (exception CYP1B1); cited from earlier work
[4] = eltrombopag only, single 75 mg, plasma
[5] = model 1, conditional mode (minimum‐maximum) for 1 × 10^6 cells
[6] = model 1 micro‐rate constants, conditional mode (minimum‐maximum) for 1 × 10^6 cells

In the case of `CC1=NN(c2ccc(C)c(C)c2)C(=O)/C1=N\Nc1cccc(-c2cccc(C(=O)O)c2)c1O` [eltrombopag, Eltrombopag], the “R value, static model” value [1] is given as “below the cut‐offs”, the “AUC0−∞ (literature)” value [2, 4] is given as 145 (101–208) h•µg/mL and the “tmax (h)” value [2, 4] is given as 2.5 (2–4) h. The Cmax ([2]; eltrombopag only, single 75 mg, plasma, mean (95% CI)) was 10.9 (8.7–13.6) µg/mL, the “K a, absorption rate constant” value ([2]; eltrombopag, used for I in.max) was 0.0084 min⁻¹ and the “F a F g, fraction absorbed multiplied by the intestinal availability” value ([2]; eltrombopag) was 0.5. For the same molecule, the parent in urine ([2]; eltrombopag) was 0 parent in urine [ ^25 ], the “V c.X, volume of the central compartment / volume of distribution” value ([2]; eltrombopag, plasma) was 2940 [ ^5 ] mL and the “effect on transporter‐mediated uptake of pitavastatin” value (human hepatocytes; 30 nmol/mL eltrombopag, 15 minute preincubation, overcome at 10–100 nmol/mL pitavastatin) was “reduced”. The “F T.X, fraction transported” value (human hepatocytes; CLup.X/(CLup.X+Pdif.X), Eq. 4) was 0.12 (0.09–0.2), the “DV = amount of measured pitavastatin and/or eltrombopag” value (“DV = amount” below) (human hepatocytes; ID 29, pitavastatin AMT 10 nmol at TIME 15, TIME 15.5 min (normalised to post eltrombopag incubation)) was 1035.93 nmol and the “DV = amount” value (human hepatocytes; ID 29, pitavastatin AMT 10 nmol at TIME 15, TIME 16 min) was 1126.83 nmol. The “DV = amount” value (human hepatocytes; ID 29, pitavastatin AMT 10 nmol at TIME 15, TIME 17 min) was 1088.94 nmol, the “DV = amount” value (human hepatocytes; ID 29, pitavastatin AMT 10 nmol at TIME 15, TIME 20 min) was 1007.88 nmol and the “DV = amount” value (human hepatocytes; ID 29, pitavastatin AMT 10 nmol at TIME 15, TIME 25 min) was 1166.93 nmol. For the same molecule, the “DV = amount” value (human hepatocytes; ID 29, pitavastatin AMT 10 nmol at TIME 15, TIME 45 min) was 1002.58 nmol, the “DV = amount” value (human hepatocytes; ID 30, pitavastatin AMT 10 nmol at TIME 15, TIME 15.25 min) was 729.81 nmol and the “DV = amount” value (human hepatocytes; ID 30, pitavastatin AMT 10 nmol at TIME 15, TIME 15.5 min) was 682.02 nmol. For the same molecule, the “DV = amount” value (human hepatocytes; ID 30, pitavastatin AMT 10 nmol at TIME 15, TIME 16 min) was 633.62 nmol, the “DV = amount” value (human hepatocytes; ID 30, pitavastatin AMT 10 nmol at TIME 15, TIME 17 min) was 618.74 nmol and the “DV = amount” value (human hepatocytes; ID 30, pitavastatin AMT 10 nmol at TIME 15, TIME 20 min) was 608.21 nmol. For the same molecule, the “DV = amount” value (human hepatocytes; ID 30, pitavastatin AMT 10 nmol at TIME 15, TIME 25 min) was 683.69 nmol, the “DV = amount” value (human hepatocytes; ID 30, pitavastatin AMT 10 nmol at TIME 15, TIME 45 min) was 599.94 nmol and the “DV = amount” value (human hepatocytes; ID 31, pitavastatin AMT 30 nmol at TIME 15, TIME 15.25 min) was 1382.52 nmol. For the same molecule, the “DV = amount” value (human hepatocytes; ID 31, pitavastatin AMT 30 nmol at TIME 15, TIME 15.5 min) was 1329.86 nmol, the “DV = amount” value (human hepatocytes; ID 31, pitavastatin AMT 30 nmol at TIME 15, TIME 16 min) was 1156.33 nmol and the “DV = amount” value (human hepatocytes; ID 31, pitavastatin AMT 30 nmol at TIME 15, TIME 17 min) was 1204.59 nmol. The “DV = amount” value (human hepatocytes; ID 31, pitavastatin AMT 30 nmol at TIME 15, TIME 20 min) was 1196.1 nmol, the “DV = amount” value (human hepatocytes; ID 31, pitavastatin AMT 30 nmol at TIME 15, TIME 25 min) was 890.75 nmol and the “DV = amount” value (human hepatocytes; ID 31, pitavastatin AMT 30 nmol at TIME 15, TIME 45 min) was 983.35 nmol. For the same molecule, the “DV = amount” value (human hepatocytes; ID 32, pitavastatin AMT 30 nmol at TIME 15, TIME 15.25 min) was 1189.57 nmol, the “DV = amount” value (human hepatocytes; ID 32, pitavastatin AMT 30 nmol at TIME 15, TIME 15.5 min) was 1153.93 nmol and the “DV = amount” value (human hepatocytes; ID 32, pitavastatin AMT 30 nmol at TIME 15, TIME 16 min) was 1218.64 nmol. The “DV = amount” value (human hepatocytes; ID 32, pitavastatin AMT 30 nmol at TIME 15, TIME 17 min) was 1146.32 nmol, the “DV = amount” value (human hepatocytes; ID 32, pitavastatin AMT 30 nmol at TIME 15, TIME 20 min) was 1061.43 nmol and the “DV = amount” value (human hepatocytes; ID 32, pitavastatin AMT 30 nmol at TIME 15, TIME 25 min) was 1010.46 nmol. The “DV = amount” value (human hepatocytes; ID 32, pitavastatin AMT 30 nmol at TIME 15, TIME 45 min) was 1102.17 nmol, the “DV = amount” value (human hepatocytes; ID 33, pitavastatin AMT 30 nmol at TIME 15, TIME 15.25 min) was 668.8 nmol and the “DV = amount” value (human hepatocytes; ID 33, pitavastatin AMT 30 nmol at TIME 15, TIME 15.5 min) was 715.76 nmol. For the same molecule, the “DV = amount” value (human hepatocytes; ID 33, pitavastatin AMT 30 nmol at TIME 15, TIME 16 min) was 633.41 nmol, the “DV = amount” value (human hepatocytes; ID 33, pitavastatin AMT 30 nmol at TIME 15, TIME 17 min) was 623.34 nmol and the “DV = amount” value (human hepatocytes; ID 33, pitavastatin AMT 30 nmol at TIME 15, TIME 20 min) was 652.6 nmol. For the same molecule, the “DV = amount” value (human hepatocytes; ID 33, pitavastatin AMT 30 nmol at TIME 15, TIME 25 min) was 543.53 nmol, the “DV = amount” value (human hepatocytes; ID 33, pitavastatin AMT 30 nmol at TIME 15, TIME 45 min) was 574.79 nmol and the “DV = amount” value (human hepatocytes; ID 34, pitavastatin AMT 100 nmol at TIME 15, TIME 15.25 min) was 1383.49 nmol. For the same molecule, the “DV = amount” value (human hepatocytes; ID 34, pitavastatin AMT 100 nmol at TIME 15, TIME 15.5 min) was 1026.05 nmol, the “DV = amount” value (human hepatocytes; ID 34, pitavastatin AMT 100 nmol at TIME 15, TIME 16 min) was 1256.06 nmol and the “DV = amount” value (human hepatocytes; ID 34, pitavastatin AMT 100 nmol at TIME 15, TIME 17 min) was 1131.42 nmol. For the same molecule, the “DV = amount” value (human hepatocytes; ID 34, pitavastatin AMT 100 nmol at TIME 15, TIME 20 min) was 983.13 nmol, the “DV = amount” value (human hepatocytes; ID 34, pitavastatin AMT 100 nmol at TIME 15, TIME 25 min) was 1130.84 nmol and the “DV = amount” value (human hepatocytes; ID 34, pitavastatin AMT 100 nmol at TIME 15, TIME 45 min) was 1000.32 nmol. The “DV = amount” value (human hepatocytes; ID 36, pitavastatin AMT 100 nmol at TIME 15, TIME 15.25 min) was 470.72 nmol, the “DV = amount” value (human hepatocytes; ID 36, pitavastatin AMT 100 nmol at TIME 15, TIME 15.5 min) was 453.1 nmol and the “DV = amount” value (human hepatocytes; ID 36, pitavastatin AMT 100 nmol at TIME 15, TIME 16 min) was 430.66 nmol. The “DV = amount” value (human hepatocytes; ID 36, pitavastatin AMT 100 nmol at TIME 15, TIME 17 min) was 384.81 nmol, the “DV = amount” value (human hepatocytes; ID 36, pitavastatin AMT 100 nmol at TIME 15, TIME 20 min) was 459.69 nmol and the “DV = amount” value (human hepatocytes; ID 36, pitavastatin AMT 100 nmol at TIME 15, TIME 25 min) was 410.46 nmol. The “DV = amount” value (human hepatocytes; ID 36, pitavastatin AMT 100 nmol at TIME 15, TIME 45 min) was 416.81 nmol, the “transporter‐mediated clearance (V max.up.E.WB/K m.up.E.WB)” value (human hepatocytes; eltrombopag, whole body scaled) was 1625 mL/min/liver and the “K m.up.X or K I.up.X” value (human hepatocytes; from micro‐rate constants, Eq. 7) was 3,138 ng/mL. The “passive efflux clearance out of the cell” value (human hepatocytes; k bX scaled to a clearance) was 1.3 (1.05–1.95) µL/min/1 × 10^6 cells, the “P dif.X” value (human hepatocytes; k fX scaled to a clearance) was 52 (40–64) µL/min/1 × 10^6 cells and the “k bX, passive rate constant out of the cell” value (human hepatocytes; [5]) was 0.43 (0.35–0.65) /min. For the same molecule, the “k fX, passive rate constant into the cell” value (human hepatocytes; [5]) was 0.05 (0.04–0.06) /min, the “k aX, transporter association rate constant” value (human hepatocytes; [6]) was 0.26 (0.23–0.31) /nmol/min and the “k dX, transporter dissociation rate constant” value (human hepatocytes; [6]) was 1.57 (1.42–2) /min. For the same molecule, the “k tX, transporter translocation rate constant” value (human hepatocytes; [6]) was 0.27 (0.24–0.32) /min, the “V max.up..X, maximum uptake velocity” value (human hepatocytes; scaled to whole liver, Eq. 6) was 5.1 × 10^6 ng/min/liver and the “P def.X, passive diffusion out of the cell” value (human hepatocytes; scaled to whole liver, Eq. 9) was 307 mL/min/liver. The V max.up (human hepatocytes; transporter rate constants transformed, Eq. 6) was 49 (28–116) pmol/min/1 × 10^6 cells and the IC50 [3] was 2 to 20 µM.
